The subject of one data set is B. subtilis KCTC 2217. It counts as cell-based, Bacillus subtilis. As for the experimental part: (§1) We detected the antimicrobial activity of peptides against Gram-negative bacteria (P. aeruginosa ATCC 27853 and A. baumannii KCTC 2508) and Gram-positive bacteria (S. aureus ATCC 25923 and B. subtilis KCTC 2217). The minimum inhibitory concentrations (MICs) of the parental and truncated peptides were determined using the microbroth dilution method, as previously described (Jorgensen [1993]). The bacteria were incubated overnight with shaking at 37 °C. The bacteria were diluted to 2 × 10^5 colony forming units (CFU)/mL in Mueller–Hinton broth (MHB) media. The peptides were serially diluted in 10 mM sodium phosphate buffer and then 50 µL of the bacteria and 50 µL of the peptide solutions were mixed and incubated for 18 h at 37 °C. The MICs were measured as the absorbance at 600 nm using a Versa Max microplate reader (Molecular Devices, Sunnyvale, CA, USA). The samples were analyzed in triplicate.

In the next data set the test system is HaCaT cells. In words: Cytotoxicity, MTT assay. Type of data set: cell-based, human. The note with it: 24 h, 1.56 µM. Here is the method: Human skin epithelial cells (HaCaT cells) were cultured in Dulbecco’s modified Eagle’s medium (DMEM) with 10% fetal bovine serum (FBS) at 37 °C in 5% CO2. Cytotoxicity was determined using the MTT assay (Deng et al. [2015]). HaCaT cells were plated at 2 × 10^4 cells/well in 96-well plates. After overnight incubation, the peptides were added at various concentrations for 24 h, and then 5 mg/mL of MTT was added to each well. After 1 h, the supernatant was removed and 100 μL of DMSO was added to each well to dissolve the formazan crystals. Cytotoxicity was measured at an absorbance of 570 nm using a microplate reader (VersaMax). The cell viability percentage (cell viability rate) was calculated using the following equation (Kim et al. [2018]): Cell viability percentage%=peptide treated sample[…]×100.

The next data set relates to A. baumannii KCTC 2508. Type of data set: cell-based, Acinetobacter baumannii. Here is the method:
as §1

Data set [1] concerns S. aureus ATCC 25923. It counts as cell-based, Staphylococcus aureus. The note with it: ATCC 25923, 18 h. Here is the method: as §1
(§2) The effects of various cations on the antimicrobial activity of P5 and the truncated peptides were determined against P. aeruginosa ATCC 27853 and S. aureus ATCC 25923. Bacteria were treated with the peptides in the presence of NaCl (50, 100, and 150 mM), MgCl2 (0.5, 1, and 2 mM), and FeCl3 (1, 4, and 8 µM). The MIC values were the same as those described above.

Data set [2] concerns P. aeruginosa ATCC 27853. It counts as cell-based, Pseudomonas aeruginosa. The note with it: ATCC 27853, 18 h. As for the experimental part: as §1
The test system of data set [3] is S. aureus ATCC 25923. It counts as cell-based, Staphylococcus aureus. The note with it: ATCC 25923, 18 h. As for the experimental part: as §1
This is another data set of the same source.

Data set [4] relates to P. aeruginosa ATCC 27853. It counts as cell-based, Pseudomonas aeruginosa. The note with it: ATCC 27853, 18 h. Here is the method:
as §1, §2
The source holds these as a separate data set.

Data set [5] relates to red blood cells (RBCs) from mice. As to the kind of experiment: Hemolytic activity. Type of data set: cell-based. The note with it: mouse RBCs 8% in PBS, peptide 100 µM, 1 h at 37 °C, absorbance 414 nm, 0.1% Triton X-100 positive control. Here is the method:
To determine the hemolytic activities of the peptides against red blood cells (RBCs) from mice, RBCs were centrifuged at 2000×g for 5 min and washed with 1 mL of phosphate-buffered saline solution (PBS) three times. The supernatant was removed and the RBCs were diluted to 8% in PBS. After serial dilution, 60 µL of the RBCs and peptides were added to a 96-well plate and incubated at 37 °C for 1 h. The plate was centrifuged at 1500×g for 10 min, 100 µL of the supernatant was transferred to a new plate, and the absorbance was measured at 414 nm (Versa-Max enzyme-linked immunosorbent assay (ELISA) reader). Additionally, 0.1% Triton X-100 and PBS were used as positive and negative controls, respectively. The hemolytic activity percentage (hemolysis rate) was calculated using the following equation (Han et al. [2016]): Hemolysis percentage%=peptide solution-negative control/positive control-PBS×100.

Structures are written as SMILES. In brackets after ≈: the same amount, converted by molar mass. Like-named read-outs stand apart in the source and are kept apart here. Peptide text beside a SMILES is read from it.

A word on the MIC: it is the smallest concentration in the dilution series that meets the test's criterion for growth inhibition. Lower therefore signals a more susceptible organism.

As to `CC[C@H](C)[C@H](NC(=O)CN)C(=O)NCC(=O)N[C@@H](C)C(=O)N[C@H](C(=O)N[C@@H](CC(C)C)C(=O)N[C@@H](CCCCN)C(=O)N[C@H](C(=O)N[C@@H](CC(C)C)C(=O)N[C@H](C(=O)N[C@H](C(=O)NCC(=O)N[C@@H](CC(C)C)C(=O)N1CCC[C@H]1C(=O)N[C@@H](C)C(=O)N[C@@H](CC(C)C)C(=O)N[C@H](C(=O)N[C@@H](CO)C(=O)N[C@@H](Cc1c[nH]c2ccccc12)C(=O)N[C@H](C(=O)N[C@@H](CCCCN)C(=O)N[C@@H](CCCNC(=N)N)C(=O)N[C@@H](CCCCN)C(=O)N[C@@H](CCCNC(=N)N)C(=O)N[C@@H](CCC(N)=O)C(=O)N[C@@H](CCC(N)=O)C(N)=O)[C@@H](C)CC)[C@@H](C)CC)[C@@H](C)O)[C@@H](C)O)C(C)C)C(C)C` [Melittin, reference compound], the minimal inhibitory concentration (MIC) in the data set on B. subtilis KCTC 2217 (B. subtilis KCTC 2217, MHB, 2 × 10^5 CFU/mL, 18 h at 37 °C, absorbance 600 nm, triplicate) is 0.78 µM (≈ 2.22 µg/mL); in the data set on A. baumannii KCTC 2508 (A. baumannii KCTC 2508, MHB, 2 × 10^5 CFU/mL, 18 h at 37 °C, absorbance 600 nm, triplicate), 1.56 µM (≈ 4.44 µg/mL). Also, the cytotoxicity entry in the data set with HaCaT cells is on record as “highly toxic”.

Turning to `CC(C)C[C@H](NC(=O)[C@H](CC(C)C)NC(=O)[C@H](CCCCN)NC(=O)[C@H](CCCCN)NC(=O)[C@H](CC(C)C)NC(=O)[C@H](CC(C)C)NC(=O)[C@@H]1CCCN1C(=O)[C@H](CCCCN)NC(=O)[C@H](CCCCN)NC(=O)[C@H](CC(C)C)NC(=O)[C@H](CC(C)C)NC(=O)[C@H](CCCCN)NC(=O)[C@H](CCCCN)NC(=O)[C@H](Cc1c[nH]c2ccccc12)NC(=O)[C@@H](N)CCCCN)C(=O)N[C@@H](CCCCN)C(N)=O` [P5-CT1] (H-KWKKLLKKPLLKKLLK-NH2), the minimal inhibitory concentration (MIC) came to 0.78 µM (≈ 1.56 µg/mL) in the data set on S. aureus ATCC 25923 [1]; 1.56 µM (≈ 3.13 µg/mL) with B. subtilis KCTC 2217 (KCTC 2217, 18 h); 1.56 µM (≈ 3.13 µg/mL) in the data set on P. aeruginosa ATCC 27853 [2]; 3.13 µM (≈ 6.27 µg/mL) against A. baumannii KCTC 2508 (KCTC 2508, 18 h); 1.56 µM (≈ 3.13 µg/mL) against S. aureus ATCC 25923 [3].

For `CC(C)C[C@H](NC(=O)[C@H](CCCCN)NC(=O)[C@H](CCCCN)NC(=O)[C@H](CC(C)C)NC(=O)[C@H](CC(C)C)NC(=O)[C@@H]1CCCN1C(=O)[C@H](CCCCN)NC(=O)[C@H](CCCCN)NC(=O)[C@H](CC(C)C)NC(=O)[C@H](CC(C)C)NC(=O)[C@H](CCCCN)NC(=O)[C@H](CCCCN)NC(=O)[C@H](Cc1c[nH]c2ccccc12)NC(=O)[C@@H](N)CCCCN)C(N)=O` [P5-CT2] (H-KWKKLLKKPLLKKL-NH2), the MIC worked out at 3.13 µM (≈ 5.52 µg/mL) against B. subtilis KCTC 2217 (KCTC 2217, 18 h); 6.25 µM (≈ 11 µg/mL) in the data set with P. aeruginosa ATCC 27853 [2]; 12.5 µM (≈ 22 µg/mL) in the data set with A. baumannii KCTC 2508 (KCTC 2508, 18 h); 1.56 µM (≈ 2.75 µg/mL) in the data set on S. aureus ATCC 25923 [3].

Turning to `CC(C)C[C@H](NC(=O)[C@H](CC(C)C)NC(=O)[C@@H]1CCCN1C(=O)[C@H](CCCCN)NC(=O)[C@H](CCCCN)NC(=O)[C@H](CC(C)C)NC(=O)[C@H](CC(C)C)NC(=O)[C@H](CCCCN)NC(=O)[C@H](CCCCN)NC(=O)[C@H](Cc1c[nH]c2ccccc12)NC(=O)[C@@H](N)CCCCN)C(=O)N[C@@H](CCCCN)C(N)=O` [P5-CT3] (H-KWKKLLKKPLLK-NH2), the MIC with B. subtilis KCTC 2217 (KCTC 2217, 18 h) was 6.25 µM (≈ 9.51 µg/mL); against P. aeruginosa ATCC 27853 [4], > 25 µM; in the data set on P. aeruginosa ATCC 27853 [2], > 25 µM; with A. baumannii KCTC 2508 (KCTC 2508, 18 h), > 25 µM; against S. aureus ATCC 25923 [3], 3.13 µM (≈ 4.76 µg/mL).

Take `CC(C)C[C@H](NC(=O)[C@H](CCCCN)NC(=O)[C@H](CCCCN)NC(=O)[C@H](CC(C)C)NC(=O)[C@H](CC(C)C)NC(=O)[C@H](CCCCN)NC(=O)[C@H](CCCCN)NC(=O)[C@H](CC(C)C)NC(=O)[C@H](CC(C)C)NC(=O)[C@@H]1CCCN1C(=O)[C@H](CCCCN)NC(=O)[C@H](CCCCN)NC(=O)[C@H](CC(C)C)NC(=O)[C@H](CC(C)C)NC(=O)[C@H](CCCCN)NC(=O)[C@@H](N)CCCCN)C(N)=O` [P5-NT1] (H-KKLLKKPLLKKLLKKL-NH2): the minimum inhibitory concentration (MIC) with S. aureus ATCC 25923 [1] came to 0.78 µM (≈ 1.51 µg/mL); against B. subtilis KCTC 2217 (KCTC 2217, 18 h), 1.56 µM (≈ 3.01 µg/mL); in the data set on P. aeruginosa ATCC 27853 [2], 1.56 µM (≈ 3.01 µg/mL); against A. baumannii KCTC 2508 (KCTC 2508, 18 h) it was 3.13 µM (≈ 6.05 µg/mL); with S. aureus ATCC 25923 [3], 1.56 µM (≈ 3.01 µg/mL).

With `CC(C)C[C@H](NC(=O)[C@H](CCCCN)NC(=O)[C@H](CCCCN)NC(=O)[C@H](CC(C)C)NC(=O)[C@H](CC(C)C)NC(=O)[C@H](CCCCN)NC(=O)[C@H](CCCCN)NC(=O)[C@H](CC(C)C)NC(=O)[C@H](CC(C)C)NC(=O)[C@@H]1CCCN1C(=O)[C@H](CCCCN)NC(=O)[C@H](CCCCN)NC(=O)[C@H](CC(C)C)NC(=O)[C@@H](N)CC(C)C)C(N)=O` [P5-NT2] (H-LLKKPLLKKLLKKL-NH2), the MIC in the data set on B. subtilis KCTC 2217 (KCTC 2217, 18 h) came to 1.56 µM (≈ 2.61 µg/mL); against P. aeruginosa ATCC 27853 [2] it was 3.13 µM (≈ 5.24 µg/mL); in the data set with A. baumannii KCTC 2508 (KCTC 2508, 18 h), 12.5 µM (≈ 20.9 µg/mL); against S. aureus ATCC 25923 [3], 1.56 µM (≈ 2.61 µg/mL).

With `CC(C)C[C@H](NC(=O)[C@H](CCCCN)NC(=O)[C@H](CCCCN)NC(=O)[C@H](CC(C)C)NC(=O)[C@H](CC(C)C)NC(=O)[C@H](CCCCN)NC(=O)[C@H](CCCCN)NC(=O)[C@H](CC(C)C)NC(=O)[C@H](CC(C)C)NC(=O)[C@@H]1CCCN1C(=O)[C@H](CCCCN)NC(=O)[C@@H](N)CCCCN)C(N)=O` [P5-NT3] (H-KKPLLKKLLKKL-NH2), the MIC with S. aureus ATCC 25923 [1] was determined as 0.78 µM (≈ 1.13 µg/mL); with B. subtilis KCTC 2217 (KCTC 2217, 18 h), 1.56 µM (≈ 2.26 µg/mL); in the data set on P. aeruginosa ATCC 27853 [2], 6.25 µM (≈ 9.06 µg/mL); with A. baumannii KCTC 2508 (KCTC 2508, 18 h) it was 25 µM (≈ 36.2 µg/mL); against S. aureus ATCC 25923 [3], 1.56 µM (≈ 2.26 µg/mL).

On to `CC(C)C[C@H](NC(=O)[C@H](CCCCN)NC(=O)[C@H](CCCCN)NC(=O)[C@H](CC(C)C)NC(=O)[C@H](CC(C)C)NC(=O)[C@H](CCCCN)NC(=O)[C@H](CCCCN)NC(=O)[C@H](CC(C)C)NC(=O)[C@H](CC(C)C)NC(=O)[C@@H]1CCCN1C(=O)[C@H](CCCCN)NC(=O)[C@H](CCCCN)NC(=O)[C@H](CC(C)C)NC(=O)[C@H](CC(C)C)NC(=O)[C@H](CCCCN)NC(=O)[C@H](CCCCN)NC(=O)[C@H](Cc1c[nH]c2ccccc12)NC(=O)[C@@H](N)CCCCN)C(N)=O` [P5] (H-KWKKLLKKPLLKKLLKKL-NH2), for which the MIC against S. aureus ATCC 25923 [1] was 1.56 µM (≈ 3.5 µg/mL); in the data set on B. subtilis KCTC 2217 (KCTC 2217, 18 h), 1.56 µM (≈ 3.5 µg/mL); in the data set with P. aeruginosa ATCC 27853 [2], 3.13 µM (≈ 7.03 µg/mL); in the data set with A. baumannii KCTC 2508 (KCTC 2508, 18 h), 1.56 µM (≈ 3.5 µg/mL); in the data set on S. aureus ATCC 25923 [3], 1.56 µM (≈ 3.5 µg/mL). The hemolysis entry in data set [5] is listed as “approximately 14%”.
